Entries after “also recorded” stand apart in the source; their conditions may differ.
What was measured:
PC12 cells = experiment: PC12 cobalt-chloride stress test, LDH release; assay type: cell-based, rat; conditions: CoCl2 300 μM, 24 hours; compounds 10 μM, NGF 100 ng/ml; FIG. 7B
Procedure: For the neuroprotection assay PC12 cells were stressed with cobalt chloride 300 μM for 24 hours and the activity of Caspase 3/7 and LDH release were measured. NGF 50 ng/ml was used as a positive control for Caspase 3/7 activity and NGF 100 ng/ml was used as a positive control for LDH release.
For the PC12-CoCl2-Assay PC12 cells were used (ATCC: CRL-1721 ™). These cells were growing in RPMI supplemented with 10% Horse Serum (heat inactivated) (Sigma Aldrich, Taufkirchen, Germany), 5% Fetal Bovine Serum (Lonza, Wuppertal, Germany), 2.5% Penicillin/Streptomycin and Glutamine (PAA, Pasching, Austria) as adherent cultures when the plates are coated with Poly-L-ornithine ([…] in water) for at least one hour at 37° C. For passaging PC12-cells were resuspended with Accutase (PAA, Pasching, Austria) for 10 minutes at 37° C. once a week.
For all experiments cells were plated (quadruplicates) on Poly-L-ornithine-coated 96-well plates at a density of 10^4 cells per well. For Caspase 3/7-measurement cells were seeded in a white 96-well-plate to detect luminescence. As positive-control for neuroprotection Nerve Growth Factor (NGF) (50 ng/ml and 100 ng/ml) was used. To induce hypoxia CoCl2 (300 μM) was added to the cells after 20-24 hours. The control-treatment was compound 1a (ENDF1), compound 1b (ENDF3), compound 3a (ENDF2), ENDF4 or Osajin in the concentrations 1 μM and 10 μM in proliferation-media without CoCl2.
For LDH-release cells were centrifuged at 1050 rpm for 5 minutes. After 24 hours of stimulation, the supernatant was mixed in an equal amount with LDH-substrate and incubated in the dark for 30 minutes. Afterwards stop solution was added and absorbance was measured at 490 nm, the blank-values are subtracted.

Neuro-2a cells = experiment: neurite length in Neuro2a cells (GAP-43 staining); assay type: cell-based, mouse; conditions: 10 μM, 2 days, compared to control and RA/VPA
Procedure: For more precise analysis of neurite length Neuro2a cells were selected and stimulated for 2 days with RA/VPA as positive control and ENDFs in MEM+10% FCS. Immunocytochemical analysis was performed using GAP43 antibody which is known as a strong neuronal plasticity marker.
Neuro2a cells were grown in MEM with Earle's Salts (PAA, Pasching, Austria) containing 2 mM L-glutamine, 100 μg/ml Penicillin/Streptomycin (PAN Biotech GmbH, Aidenbach, Germany), 100 mM sodium pyruvate (Sigma-Aldrich, Taufkirchen, Germany) and 10% FCS (Lonza, Wuppertal, Germany).
The cells were passaged with 6 ml trypsin 0.5 mg/ml+EDTA 0.22 mg/ml (PAA, Pasching, Austria) two times per week. For analysis of neurite length Neuro2a cells were seeded on coverslips in a 24 well plate coated with Poly-L-ornithine and Laminin in a differentiation media MEM with Earle's Salts (PAA, Pasching, Austria) containing 2 mM L-glutamine, 100 μg/ml Penicillin/Streptomycin (PAN Biotech GmbH, Aidenbach, Germany), 100 mM sodium pyruvate (Sigma-Aldrich, Taufkirchen, Germany) and 1% FCS (Lonza, Wuppertal, Germany) and treated for 2 days with retinoic acid plus valproic acid and compound 1a (ENDF1) 10 μM, compound 1b (ENDF3) 10 μM, compound 3a (ENDF2) 10 μM, or ENDF4 10 μM. Cells were fixed as described in Example 18. Immunostaining was performed using GAP-43 1:500 (AbD Serotec, Oxford, UK).

[1] = test system: chicken dorsal root ganglion neurons; experiment: neurite outgrowth in primary chicken dorsal root ganglion neurons; assay type: cell-based; conditions: E8 and E15 DRG neurons, 12 to 24 hours; compound 1a 10 μM, NGF 20 ng/ml; GAP-43 staining
Procedure: Dorsal root ganglion neurons comprise of an axon with two branches and are a good model for neuronal differentiation. Embryonic day 8 and 15 chicken dorsal root ganglions were examined for immunochemical staining with GAP43 after incubation with NGF 20 ng/ml and compound 1a (ENDF1) 10 μM to analyze whether compound 1a alone or in combination with the nerve growth factor enhances neurite outgrowth and branching.
Embryonic day (E) 8 and E15 chicken Dorsal Root Ganglions (DRGs) were prepared as described in: Aigner, 1993; Aigner, 1995. Briefly, foetuses were taken out of the egg, decapitated and the DRGs were targeted from the ventral side. The 10 lumbar region DRGs per foetus were dissected, and a total of 100 DRGs were collected in 10 ml DPBS in a 15 ml Falcon tube. DRGs were centrifuged 120×g for 3 min and then enzymatically treated with 1 ml trypsin 0.5 mg/ml+EDTA 0.22 mg/ml (PAA, Pasching, Austria) for 15 min. Then, 9 ml of DMEM 10% FCS were added to inactivate the trypsin and DRGs were centrifuged 120×g for 5 min. DRGs were resuspended and washed with 5 ml of DMEM 10% FCS, pipetted up and down to dissociate them, centrifuged, resuspended in 5 ml of DMEM 10% FCS and transferred into a 60 mm diameter cell culture dish. […]

SMILES | protection from CoCl2 induced LDH release (cell death) (PC12 cells) | neurite length and branching (Neuro-2a cells) | neurite extension [1]
COc1cc2c(c(O)c1C(=O)/C=C/c1ccc(O)cc1)C=CC(C)(C)O2 [Compound 1a, (E)-1-(5-hydroxy-7-methoxy-2,2-dimethyl-2H-chromen-6-yl)-3-(4-hydroxyphenyl)prop-2-en-1-one] | partially protected; also recorded: slightly decrease the LDH release | longer growth of neurites as well as more elaborated branches; also recorded: strong and significant increase on neurite length and more elaborated branches | strongly promote neurite extension; also recorded: promotes neurite extension to a similar degree as NGF; also recorded: almost in the range of NGF
COc1cc2c(c(O)c1C(=O)/C=C/c1ccc(O)cc1)CCC(C)(C)O2 [Compound 1b, (E)-1-(5-hydroxy-7-methoxy-2,2-dimethylchroman-6-yl)-3-(4-hydroxyphenyl)prop-2-en-1-one] | partially protected; also recorded: slightly decrease the LDH release | longer growth of neurites as well as more elaborated branches; also recorded: strong and significant increase on neurite length and more elaborated branches | 

— patent US9956199B2, “Chromane-like cyclic prenylflavonoids for the medical intervention in neurological disorders” (priority 2011, dated 2018)
